Active and inactive are the calls of the source. The calls are words filed in the database; no cut-off is given here.
Experiments:
HT-29 [1] = assay: Antiproliferative activity against human HT-29 cells assessed as inhibition of cell growth measured after 48 hrs by MTT assay; type: functional, cell-based; details: HT-29, 48 h
HCT-116 [2] = assay: Antiproliferative activity against human HCT-116 cells assessed as inhibition of cell growth measured after 48 hrs by MTT assay; type: functional, cell-based; details: HCT-116, 48 h
L929 = assay: Cytotoxicity against mouse L929 cells assessed as reduction in cell viability at 0.78 to 100 uM measured after 24 hrs by MTT colorimetric assay; type: toxicity, cell-based; details: l929, 24 h, dose 0.78-100 µM
[3] = Cytotoxicity against mouse L929 cells assessed as cell survival at 0.78 to 100 uM measured after 24 hrs by MTT colorimetric assay relative to control; type: toxicity, cell-based; details: dose 0.78-100 µM, read-out: Activity
HCT-116 [4] = assay: Induction of apoptosis in human HCT-116 cells assessed as inhibition of ERK phosphorylation level measured after 12 hrs by Western blotting analysis; type: functional, cell-based
HT-29 [5] = assay: Induction of apoptosis in human HT-29 cells assessed as fold increase in DNA fragmentation measured after 48 hrs by ELISA method; type: functional
HCT-116 [6] = assay: Induction of apoptosis in human HCT-116 cells assessed as increase in cleaved PARP expression measured after 24 to 48 hrs by Western blot analysis; type: functional, cell-based; details: time 24-48 hrs
HCT-116 [7] = assay: Induction of apoptosis in human HCT-116 cells assessed as fold increase in DNA fragmentation measured after 48 hrs by ELISA method; type: functional
HT-29 [8] = assay: Induction of apoptosis in human HT-29 cells assessed as increase in cleaved caspase-3 expression measured after 24 to 48 hrs by Western blot analysis; type: functional, cell-based; details: time 24-48 hrs
HCT-116 [9] = assay: Induction of apoptosis in human HCT-116 cells assessed as decrease in ERK phosphorylation level measured after 6 hrs by Western blotting analysis; type: functional, cell-based
HCT-116 [10] = assay: Induction of apoptosis in human HCT-116 cells assessed as activation of p38 measured after 6 to 12 hrs by Western blotting analysis; type: functional, cell-based; details: time 6-12 hrs
HCT-116 [11] = assay: Induction of apoptosis in human HCT-116 cells assessed as downregulation of Akt phosphorylation level measured after 6 hrs by Western blotting analysis; type: functional, cell-based
HT-29 [12] = assay: Induction of apoptosis in human HT-29 cells assessed as inhibition of PARP expression by Western blot analysis; type: functional, cell-based; details: time 24-48 hrs, TDE = time-dependent effect
HCT-116 [13] = assay: Induction of apoptosis in human HCT-116 cells assessed as effect on ERK expression level measured after 6 to 12 hrs by Western blotting analysis; type: functional, cell-based; details: time 6-12 hrs
HCT-116 [14] = assay: Induction of apoptosis in human HCT-116 cells assessed as inhibition of capsase-3 expression measured after 24 to 48 hrs by Western blot analysis; type: functional, cell-based; details: time 24-48 hrs
HT-29 [15] = assay: Induction of apoptosis in human HT-29 cells assessed as increase in cleaved PARP expression measured after 48 hrs by Western blot analysis; type: functional, cell-based
HCT-116 [16] = assay: Induction of apoptosis in human HCT-116 cells assessed as upregulation of Akt expression level measured after 6 to 12 hrs by Western blotting analysis; type: functional, cell-based; details: time 6-12 hrs
HCT-116 [17] = assay: Induction of apoptosis in human HCT-116 cells assessed as increase in cleaved caspase-3 expression measured after 48 hrs by Western blot analysis; type: functional, cell-based
HCT-116 [18] = assay: Induction of apoptosis in human HCT-116 cells assessed as increase in cleaved caspase-3 expression measured after 24 hrs by Western blot analysis; type: functional, cell-based
HT-29 [19] = assay: Induction of apoptosis in human HT-29 cells assessed as inhibition of capsase-3 expression measured after 24 to 48 hrs by Western blot analysis; type: functional, cell-based; details: time 24-48 hrs
HCT-116 [20] = assay: Induction of apoptosis in human HCT-116 cells assessed as inhibition of PARP expression by Western blot analysis; type: functional, cell-based; details: time 24-48 hrs, TDE = time-dependent effect
HCT-116 [21] = assay: Antiproliferative activity against human HCT-116 cells assessed as inhibition of cell growth at 50 uM measured after 48 hrs by MTT assay; type: functional, cell-based; details: HCT-116, 48 h
HT-29 [22] = assay: Antiproliferative activity against human HT-29 cells assessed as inhibition of cell growth at 50 uM measured after 48 hrs by MTT assay; type: functional, cell-based; details: HT-29, 48 h

Row | SMILES | IC50 (HT-29 [1]) [µM] | IC50 (HCT-116 [2]) [µM] | Activity (L929) | viability at 24 h, up to 100 µM [3] [%] | also measured
1 | C#CCOc1ccc(C(c2ccc(OCc3cnnn3CCCN)cc2)c2ccccn2)cc1 (centres undefined) | > 50 | > 50 | Non-Toxic | 100 | 
2 | OC[C@@H](O)[C@H]1O[C@H](O)[C@H](O)[C@H]1n1cc(COc2ccc(C(c3ccc(OCc4cn([C@@H]5[C@@H](O)[C@@H](O)O[C@@H]5[C@H](O)CO)nn4)cc3)c3ccccn3)cc2)nn1 (some centres undefined) | > 50 | > 50 |  |  | 
3 | C#CCOc1ccc(C(c2ccc(OCc3cn(Cc4ccccc4)nn3)cc2)c2ccccn2)cc1 (centres undefined) | > 50 | > 50 | Non-Toxic | 100 | 
4 | [O-][n+]1ccccc1C(c1ccc(OCc2cn(CCN3CCCCC3)nn2)cc1)c1ccc(OCc2cn(CCN3CCCCC3)nn2)cc1 | > 50 | > 50 |  |  | IC50 (HCT-116 [21]): > 50 µM; IC50 (HT-29 [22]): > 50 µM
5 | c1ccc(C(c2ccc(OCc3cn(C[C@H]4CCCN4)nn3)cc2)c2ccc(OCc3cn(C[C@H]4CCCN4)nn3)cc2)nc1 | > 50 | > 50 | Non-Toxic | 100 | 

Now from value to molecule, other results behind:

Row | IC50 (HT-29 [1]) [µM] | IC50 (HCT-116 [2]) [µM] | SMILES | Activity (L929) | viability at 24 h, up to 100 µM [3] [%] | also measured
6 | > 50 | > 50 | O[C@@H]1[C@@H](O)[C@@H](O)O[C@H](Cn2cc(COc3ccc(C(c4ccc(OCc5cn(C[C@H]6O[C@H](O)[C@H](O)[C@@H](O)[C@H]6O)nn5)cc4)c4ccccn4)cc3)nn2)[C@@H]1O (some centres undefined) |  |  | 
7 | > 50 | > 50 | c1ccc(Cn2cc(COc3ccc(C(c4ccc(OCc5cn(Cc6ccccc6)nn5)cc4)c4ccccn4)cc3)nn2)cc1 | Non-Toxic | 100 | 
8 | 11 | 14.4 | c1ccc(C(c2ccc(OCc3cn(CCN4CCCCC4)nn3)cc2)c2ccc(OCc3cn(CCN4CCCCC4)nn3)cc2)nc1 | Non-Toxic | 100 | Activity (HCT-116 [4]): Active; fold change (FC) (HT-29 [5]): 5.37; Activity (HCT-116 [6]): Active; fold change (FC) (HCT-116 [7]): 6.73; Activity (HT-29 [8]): Active; Activity (HCT-116 [9]): Active; Activity (HCT-116 [10]): inactive; Activity (HCT-116 [11]): Active; Activity (HT-29 [12]): Tde; Activity (HCT-116 [13]): inactive; Activity (HCT-116 [14]): Active; Activity (HT-29 [15]): Active; Activity (HCT-116 [16]): Active; Activity (HCT-116 [17]): Active; Activity (HCT-116 [18]): inactive; Activity (HT-29 [19]): Active; Activity (HCT-116 [20]): Tde
9 | 24.7 | 45 | C#CCOc1ccc(C(c2ccc(OCc3cn(CCN4CCCCC4)nn3)cc2)c2ccccn2)cc1 (centres undefined) | Non-Toxic | 100 | 

— ChEMBL document CHEMBL5376025, “Colorectal anticancer activity of a novel class of triazolic triarylmethane derivatives” (RSC Med Chem, 2024)
